Experimental data published in US4745124A, “Orally effective anti-hypertensive agents” (priority 1983, dated 1988).
Where a name gives a salt, the structure may show the parent alone. Read-outs that look alike come from different tables or passages of the source.

System: pressor effects of angiotensin I
Test: oral effectiveness: blood pressure response to angiotensin I in anesthetized rats
Type: in vivo, rat
Details: for response vs control in vivo at 10 µmol/kg: Rattus norvegicus, oral 10 μmol/kg, Ex. 246, read-out: Blood Pressure Response to 400 ng/kg of Angiotensin I
Protocol: Rats (210-290 g body weight) were fasted overnight and then anesthetized with intraperitoneal pentobarbital, 50-60 mg/kg. Tracheostomy was performed and the animals were ventilated mechanically. A cannula was inserted into a femoral vein for injection of angiotensin I or II, and a second cannula was inserted into a common carotid artery for direct measurement of arterial blood pressure. Heparin, 1,000 units, was injected via the femoral vein to prevent coagulation. Blood pressure was measured with a pressure transducer connected to a polygraph. The rats were injected with 80 ng of angiotensin I or angiotensin II in 20 μl of 0.9 g % NaCl; an amount of antiotensin I or II sufficient to raise mean arterial blood pressure by 27-40 mm Hg. After the responsiveness of a given rat to angiotensins I and II was established, compound (I), at 2 or 5 mg/kg (drug dissolved in 0.5 ml of H2 O plus 10 μl of 1N NaHCO3), was given via a stomach tube. At timed intervals, the effects of 80 ng of angiotensin I or angiotensin II on mean arterial blood pressure were tested.
Rats were prepared as described in Example 222. Compound (II) [N-benzoyl-L-phenylalanylthiopropanoyl)-L-proline] was given orally, via a stomach tube, at a dose of 12 mg/kg or 20 mg/kg. Compound (II) was dissolved in 0.5 ml of H2 O plus 10 μl of 1N NaHCO3. In all other respects, the experimental preparations were exactly as described in Example 222.
Rats (210-290 g body weight) were fasted overnight and then anesthetized with intraperitoneal pentobarbital, 50-60 mg/kg. Tracheostomy was performed and the animals were ventilated mechanically. A cannula was inserted into a femoral vein for injection of angiotensin I or II, and a second cannula was inserted into a common carotid artery for direct measurement of arterial blood pressure. Heparin, 1,000 units, was injected via the femoral vein to prevent coagulation. Blood pressure was measured with a pressure transducer connected to a polygraph. The rats were injected with 160 ng of angiotensin I or 80 ng of angiotensin II in 20 μl of 0.9 g % NaCl; an amount of angiotensin I or II sufficient to raise mean arterial blood pressure by 27-40 mm Hg. After the responsiveness of a given rat to angiotensins I and II was established, compound (B) at 10 mg (drug dissolved in 0.5 ml of H2 O plus 10 μl of 1N NaHCO3), was given via a stomach tube. At timed intervals, the effects of 160 ng of angiotensin I or 80 ng of angiotensin II on mean arterial blood pressure were tested. Results are shown below:
Rats (210-290 g body weight) were fasted overnight and then anesthetized with intraperitoneal pentobarbital, 50-60 mg/kg. Tracheostomy was performed and the animals were ventilated mechanically. A cannula was inserted into a femoral vein for injection of angiotensin I, and a second cannula was inserted into a common carotid artery for direct measurement of arterial blood pressure. Heparin, 1,000 units, was injected via the femoral vein to prevent coagulation. Blood pressure was measured with a pressure transducer connected to a polygraph. The rats were injected with 400 ng/kg of angiotensin I in 20 μl of 0.9 g % NaCl; an amount of angiotensin I sufficient to raise mean arterial blood pressure by 39 mm Hg. After the responsiveness of a given rat to angiotensin I was established, the named compound at 17 μmol/kg (drug dissolved in 0.15 ml of H2 O plus 10 μl of 1N NaHCO3), was given via a stomach tube. At timed intervals, the effects of 400 ng/kg of angiotensin I on mean arterial blood pressure were tested. Results are shown below:
Rats (190-290 g body weight) were fasted overnight and then anesthetized with intraperitoneal pentobarbital, 50-60 mg/kg. Tracheostomy was performed and the animals were ventilated mechanically. A cannula was inserted into a femoral vein for injection of angtiotensin I, and a second cannula was inserted into a common carotid artery for direct measurement of arterial blood pressure. […]

SMILES: C[C@H](CSC(=O)[C@@H](N)Cc1ccccc1)C(=O)N1CCC[C@H]1C(=O)O [N-alpha-(3-L-phenylalanylthio-2-D-methylpropanoyl)-L-proline]
- Blood Pressure Response to 400 ng/kg of Angiotensin I (oral 20 μmol/kg, 6 min, Ex. 237): 77 % of Control
- Blood Pressure Response to 400 ng/kg of Angiotensin I (oral 20 μmol/kg, 10 min, Ex. 237): 69 % of Control
- Blood Pressure Response to 400 ng/kg of Angiotensin I (oral 20 μmol/kg, 19 min, Ex. 237): 46 % of Control
- Blood Pressure Response to 400 ng/kg of Angiotensin I (oral 20 μmol/kg, 25 min, Ex. 237): 38 % of Control
- Blood Pressure Response to 400 ng/kg of Angiotensin I (oral 20 μmol/kg, 29 min, Ex. 237): 38 % of Control
- Blood Pressure Response to 400 ng/kg of Angiotensin I (oral 20 μmol/kg, 38 min, Ex. 237): 33 % of Control
- Blood Pressure Response to 400 ng/kg of Angiotensin I (oral 20 μmol/kg, 50 min, Ex. 237): 33 % of Control
- Blood Pressure Response to 400 ng/kg of Angiotensin I (oral 20 μmol/kg, 57 min, Ex. 237): 31 % of Control
- Blood Pressure Response to 400 ng/kg of Angiotensin I (oral 20 μmol/kg, 65 min, Ex. 237): 31 % of Control
- Blood Pressure Response to 400 ng/kg of Angiotensin I (oral 20 μmol/kg, 74 min, Ex. 237): 26 % of Control
- Blood Pressure Response to 400 ng/kg of Angiotensin I (oral 20 μmol/kg, 88 min, Ex. 237): 36 % of Control

SMILES: CC(=O)N[C@@H](Cc1ccccc1)C(=O)SC[C@@H](C)C(=O)N1CCC[C@H]1C(=O)O [N-alpha-[3-(N-alpha-acetyl-L-phenylalanylthio)-2-D-methylpropanoyl]-L-proline]
- Blood Pressure Response to 400 ng/kg of Angiotensin I (oral 13.6 μmole/kg, 3 min, Ex. 235): 40 % of Control
- Blood Pressure Response to 400 ng/kg of Angiotensin I (oral 13.6 μmole/kg, 7 min, Ex. 235): 40 % of Control
- Blood Pressure Response to 400 ng/kg of Angiotensin I (oral 13.6 μmole/kg, 13 min, Ex. 235): 28 % of Control
- Blood Pressure Response to 400 ng/kg of Angiotensin I (oral 13.6 μmole/kg, 18 min, Ex. 235): 24 % of Control
- Blood Pressure Response to 400 ng/kg of Angiotensin I (oral 13.6 μmole/kg, 23 min, Ex. 235): 20 % of Control
- Blood Pressure Response to 400 ng/kg of Angiotensin I (oral 13.6 μmole/kg, 31 min, Ex. 235): 18 % of Control
- Blood Pressure Response to 400 ng/kg of Angiotensin I (oral 13.6 μmole/kg, 34 min, Ex. 235): 20 % of Control
- Blood Pressure Response to 400 ng/kg of Angiotensin I (oral 13.6 μmole/kg, 42 min, Ex. 235): 20 % of Control
- Blood Pressure Response to 400 ng/kg of Angiotensin I (oral 13.6 μmole/kg, 48 min, Ex. 235): 16 % of Control
- Blood Pressure Response to 400 ng/kg of Angiotensin I (oral 13.6 μmole/kg, 58 min, Ex. 235): 16 % of Control
- Blood Pressure Response to 400 ng/kg of Angiotensin I (oral 13.6 μmole/kg, 67 min, Ex. 235): 20 % of Control
- Blood Pressure Response to 400 ng/kg of Angiotensin I (oral 13.6 μmole/kg, 80 min, Ex. 235): 20 % of Control
- Blood Pressure Response to 400 ng/kg of Angiotensin I (oral 13.6 μmole/kg, 90 min, Ex. 235): 18 % of Control
- Blood Pressure Response to 400 ng/kg of Angiotensin I (oral 13.6 μmole/kg, 100 min, Ex. 235): 16 % of Control
- Blood Pressure Response to 400 ng/kg of Angiotensin I (oral 13.6 μmole/kg, 112 min, Ex. 235): 20 % of Control
- Blood Pressure Response to 400 ng/kg of Angiotensin I (oral 13.6 μmole/kg, 125 min, Ex. 235): 20 % of Control
- Blood Pressure Response to 400 ng/kg of Angiotensin I (oral 13.6 μmole/kg, 137 min, Ex. 235): 30 % of Control
- Blood Pressure Response to 400 ng/kg of Angiotensin I (oral 13.6 μmole/kg, 167 min, Ex. 235): 50 % of Control

SMILES: C[C@H](CSC(=O)[C@H](Cc1ccccc1)NC(=O)C1CCCC1)C(=O)N1CCC[C@H]1C(=O)O [N-alpha-[3-(N-alpha-cyclopentylcarbonyl-L-phenylalanylthio)-2-D-methylpropanoyl]-L-proline]
- Blood Pressure Response to 400 ng/kg of Angiotensin I (oral 23 μmole/kg, 2 min, Ex. 231): 71 % of Control
- Blood Pressure Response to 400 ng/kg of Angiotensin I (oral 23 μmole/kg, 6 min, Ex. 231): 63 % of Control
- Blood Pressure Response to 400 ng/kg of Angiotensin I (oral 23 μmole/kg, 16 min, Ex. 231): 49 % of Control
- Blood Pressure Response to 400 ng/kg of Angiotensin I (oral 23 μmole/kg, 23 min, Ex. 231): 43 % of Control
- Blood Pressure Response to 400 ng/kg of Angiotensin I (oral 23 μmole/kg, 37 min, Ex. 231): 43 % of Control
- Blood Pressure Response to 400 ng/kg of Angiotensin I (oral 23 μmole/kg, 48 min, Ex. 231): 40 % of Control
- Blood Pressure Response to 400 ng/kg of Angiotensin I (oral 23 μmole/kg, 64 min, Ex. 231): 26 % of Control
- Blood Pressure Response to 400 ng/kg of Angiotensin I (oral 23 μmole/kg, 71 min, Ex. 231): 26 % of Control
- Blood Pressure Response to 400 ng/kg of Angiotensin I (oral 23 μmole/kg, 84 min, Ex. 231): 37 % of Control
- Blood Pressure Response to 400 ng/kg of Angiotensin I (oral 23 μmole/kg, 96 min, Ex. 231): 37 % of Control
- Blood Pressure Response to 400 ng/kg of Angiotensin I (oral 23 μmole/kg, 109 min, Ex. 231): 40 % of Control
- Blood Pressure Response to 400 ng/kg of Angiotensin I (oral 23 μmole/kg, 124 min, Ex. 231): 54 % of Control
- Blood Pressure Response to 400 ng/kg of Angiotensin I (oral 23 μmole/kg, 140 min, Ex. 231): 51 % of Control
- Blood Pressure Response to 400 ng/kg of Angiotensin I (oral 23 μmole/kg, 157 min, Ex. 231): 63 % of Control
- Blood Pressure Response to 400 ng/kg of Angiotensin I (oral 23 μmole/kg, 171 min, Ex. 231): 77 % of Control

SMILES: C[C@H](CSC(=O)C(Cc1ccccc1)NC(=O)c1ccccc1)C(=O)N1CCC[C@H]1C(=O)O (stereo partly drawn) [sodium salt of N-alpha[3-(N-alpha-benzoyl-D,L-phenylalanylthio)-2-D-methylpropanoyl]-L-proline]
- response vs control in vivo at 10 µmol/kg (5 min, 5 min): 82%
- response vs control in vivo at 10 µmol/kg (10 min, 10 min): 33%
- response vs control in vivo at 10 µmol/kg (0.25 h, 15 min): 24%
- response vs control in vivo at 10 µmol/kg (20 min, 20 min): 27%
- response vs control in vivo at 10 µmol/kg (0.5 h, 30 min): 27%
- response vs control in vivo at 10 µmol/kg (40 min, 40 min): 22%
- response vs control in vivo at 10 µmol/kg (50 min, 50 min): 24%
- response vs control in vivo at 10 µmol/kg (1 h, 60 min): 27%
- response vs control in vivo at 10 µmol/kg (1.5 h, 90 min): 36%
- response vs control in vivo at 10 µmol/kg (2 h, 120 min): 44%
- response vs control in vivo at 10 µmol/kg (2.5 h, 150 min): 62%
- response vs control in vivo at 10 µmol/kg (3 h, 180 min): 60%
- response vs control in vivo at 10 µmol/kg (3.5 h, 210 min): 71%
- response vs control in vivo at 10 µmol/kg (4 h, 240 min): 73%
